From patent US20110262508A1, “ANTIMICROBIAL COMPOSITIONS, FORMULATIONS AND USES THEREOF” (priority 2007, published 2011)
Read-outs that look alike come from different tables or passages of the source. Peptide text beside a SMILES is read from it.

Columns and labels:
[1] = test system: S. typhimurium strain AroA; format: cell-based
Method: Synthetic peptides were tested for their ability to inhibit bacterial growth in liquid culture. […] 19606, Acinetobacter spp. ATCC 17903, Acinetobacter spp. ATCC 19004, Escherichia coli strain BL21, S. aureus, S. typhimurium strain AroA, P. aeruginosa or P. pneumotropica. After 5-6 hours of shaking at 37° C., growth was measured as absorbance at 595 nm. As a control, cultures were grown in the presence of 0.1% acetonitrile (i.e., the concentration present in 10 μM peptide).

[2] = test system: A. baumannii ATCC 19606, Acinetobacter spp. ATCC 17903, Acinetobacter spp. ATCC 19004, E. coli BL21, S. aureus, S. typhimurium AroA, P. aeruginosa, P. …; assay: Antibacterial spectrum over the serial dilution panel (Table 6); format: cell-based; settings: summary of Table 6
Outline: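 Peptides at about 5–10 μM were added to liquid media freshly inoculated with each bacterial strain and shaken 5-6 h at 37° C. Growth read as absorbance at 595 nm; control cultures contained 0.1% acetonitrile.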

SMILES	% inhibition of bacterial growth by peptide ([1]; 5 μM peptide)	% inhibition of bacterial growth by peptide ([1]; 10 μM peptide)	% inhibition of bacterial growth by peptide ([1]; 15 μM peptide)	% inhibition of bacterial growth by peptide ([1]; 20 μM peptide)	selectively inhibited growth of Acinetobacter spp. ATCC 19004, and S. aureus [2]	% inhibition of bacterial growth by peptide ([1]; 12.5 μM peptide)	% inhibition of bacterial growth by peptide ([1]; 17.5 μM peptide)	selectively inhibited growth of A. baumannii ATCC Accession No. 19606, Acinetobacter spp. ATCC 17903, Acinetobacter spp. ATCC 19004, and S. aureus [2]	selectively inhibited growth of S. aureus [2]	selectively inhibited growth of Acinetobacter spp. ATCC 19004 [2]
C[C@H](NC(=O)[C@@H](NC(=O)CNC(=O)[C@@H]1CCCN1C(=O)[C@H](Cc1c[nH]cn1)NC(=O)[C@H](CCCNC(=N)N)NC(=O)[C@H](Cc1c[nH]cn1)NC(=O)[C@H](CCCNC(=N)N)NC(=O)[C@H](Cc1c[nH]cn1)NC(=O)[C@H](CCCNC(=N)N)NC(=O)[C@H](CCCNC(=N)N)NC(=O)[C@H](Cc1c[nH]cn1)NC(=O)[C@H](CCCNC(=N)N)NC(=O)[C@H](Cc1c[nH]cn1)NC(=O)[C@H](Cc1c[nH]cn1)NC(=O)[C@@H]1CCCN1C(=O)[C@H](Cc1c[nH]cn1)NC(=O)[C@@H]1CCCN1C(=O)[C@H](CCC(N)=O)NC(=O)[C@H](CCC(N)=O)NC(=O)[C@@H]1CCCN1C(=O)[C@@H](NC(=O)[C@@H](N)CC(N)=O)[C@@H](C)O)[C@@H](C)O)C(=O)O [Ac47] (H-NTPQQPHPHHRHRRHRHRHPGTA-OH; N-terminus and C-terminus assumed)	13%	25%	29%	50%	selectively inhibited growth					
C[C@H](NC(=O)[C@H](CO)NC(=O)[C@H](CCCNC(=N)N)NC(=O)CNC(=O)[C@H](CCCNC(=N)N)NC(=O)CNC(=O)[C@H](CO)NC(=O)[C@H](CO)NC(=O)[C@H](CCCNC(=N)N)NC(=O)CNC(=O)[C@@H]1CCCN1C(=O)[C@@H]1CCCN1C(=O)[C@H](CO)NC(=O)[C@H](CCCNC(=N)N)NC(=O)[C@@H]1CCCN1C(=O)[C@H](CO)NC(=O)[C@@H]1CCCN1C(=O)[C@@H](NC(=O)[C@H](CCCNC(=N)N)NC(=O)CNC(=O)[C@@H](N)Cc1c[nH]c2ccccc12)[C@@H](C)O)C(=O)N[C@@H](CO)C(=O)N[C@@H](CS)C(=O)O [Ac66] (H-WGRTPSPRSPPGRSSGRGRSASC-OH; N-terminus and C-terminus assumed)			0%	0%	selectively inhibited growth	0%	0%			
CC[C@H](C)[C@H](NC(=O)[C@H](CS)NC(=O)[C@H](CCCCN)NC(=O)[C@H](CC(C)C)NC(=O)[C@H](Cc1ccccc1)NC(=O)[C@H](CC(=O)O)NC(=O)[C@H](CC(C)C)NC(=O)[C@H](CCCNC(=N)N)NC(=O)[C@H](CC(N)=O)NC(=O)[C@H](Cc1ccccc1)NC(=O)CNC(=O)[C@@H](NC(=O)[C@@H](NC(=O)[C@H](Cc1c[nH]cn1)NC(=O)[C@H](CC(N)=O)NC(=O)[C@@H](NC(=O)[C@@H](NC(=O)[C@H](Cc1c[nH]cn1)NC(=O)[C@H](Cc1ccccc1)NC(=O)[C@H](CO)NC(=O)[C@@H](NC(=O)[C@@H](N)Cc1ccccc1)C(C)C)[C@@H](C)O)[C@@H](C)O)C(C)C)[C@@H](C)CC)C(=O)N[C@@H](CO)C(=O)O [Ac3] (H-FVSFHTTNHVIGFNRLDFLKCIS-OH; N-terminus and C-terminus assumed)	2%	2%	6%	18%				selectively inhibited growth		
CC(C)C[C@H](NC(=O)[C@@H](NC(=O)[C@H](CCC(=O)O)NC(=O)[C@@H](NC(=O)[C@H](CCCNC(=N)N)NC(=O)CNC(=O)[C@@H](N)CCC(N)=O)C(C)C)C(C)C)C(=O)N[C@@H](Cc1ccc(O)cc1)C(=O)N[C@@H](CCCNC(=N)N)C(=O)NCC(=O)N[C@@H](CO)C(=O)N[C@@H](Cc1c[nH]c2ccccc12)C(=O)NCC(=O)N[C@H](C(=O)N[C@H](C(=O)N[C@@H](CS)C(=O)O)C(C)C)[C@@H](C)O [Ac175, reference compound] (H-QGRVEVLYRGSWGTVC-OH; N-terminus and C-terminus assumed)	3%	0%	0%	4%					selectively inhibited growth	
CC[C@H](C)[C@H](NC(=O)[C@H](CCCCN)NC(=O)[C@@H](NC(=O)[C@H](CCCNC(=N)N)NC(=O)[C@H](CO)NC(=O)[C@H](Cc1ccccc1)NC(=O)[C@H](CS)NC(=O)[C@H](CC(N)=O)NC(=O)[C@@H]1CCCN1C(=O)[C@H](CC(=O)O)NC(=O)CN)C(C)C)C(=O)N[C@@H](CC(C)C)C(=O)N[C@@H](C)C(=O)N[C@@H](CS)C(=O)O [Ac96] (H-GDPNCFSRVKILAC-OH)			6%	0%	selectively inhibited growth	0%	0%			
CC[C@H](C)[C@H](NC(=O)[C@H](Cc1ccccc1)NC(=O)[C@H](CCC(N)=O)NC(=O)[C@H](CO)NC(=O)[C@H](Cc1ccccc1)NC(=O)[C@H](Cc1c[nH]cn1)NC(=O)[C@H](CCCNC(=N)N)NC(=O)[C@H](Cc1c[nH]cn1)NC(=O)[C@@H](NC(=O)[C@H](CCCNC(=N)N)NC(=O)[C@H](CC(C)C)NC(=O)CNC(=O)[C@H](CC(C)C)NC(=O)[C@H](CC(=O)O)NC(=O)[C@H](CCCNC(=N)N)NC(=O)[C@@H](NC(=O)[C@H](CCC(N)=O)NC(=O)[C@H](CCCNC(=N)N)NC(=O)[C@@H](N)CCCNC(=N)N)C(C)C)C(C)C)C(=O)N[C@@H](CC(N)=O)C(=O)N[C@@H](CCCNC(=N)N)C(=O)N[C@@H](CO)C(=O)NCC(=O)O [Ac173] (H-RRQVRDLGLRVHRHFSQFINRSG-OH; N-terminus and C-terminus assumed)			0%	0%		0%	0%			selectively inhibited growth
C[C@@H](O)[C@H](NC(=O)[C@H](CS)NC(=O)[C@H](CO)NC(=O)[C@@H](N)Cc1c[nH]cn1)C(=O)N[C@H](C(=O)N1CCC[C@H]1C(=O)N[C@@H](CC(N)=O)C(=O)N[C@H](C(=O)N1CCC[C@H]1C(=O)N[C@@H](CCC(N)=O)C(=O)N[C@@H](CCC(N)=O)C(=O)N1CCC[C@H]1C(=O)N[C@@H](Cc1c[nH]cn1)C(=O)N1CCC[C@H]1C(=O)N[C@@H](Cc1c[nH]cn1)C(=O)N[C@@H](Cc1c[nH]cn1)C(=O)N[C@@H](CCCNC(=N)N)C(=O)N[C@@H](Cc1c[nH]cn1)C(=O)N[C@@H](CCCNC(=N)N)C(=O)N[C@@H](CCCNC(=N)N)C(=O)N[C@@H](Cc1c[nH]cn1)C(=O)N[C@@H](CCCNC(=N)N)C(=O)N[C@@H](Cc1c[nH]cn1)C(=O)O)[C@@H](C)O)[C@@H](C)O [Ac46] (H-HSCTTPNTPQQPHPHHRHRRHRH-OH; N-terminus and C-terminus assumed)	3%	16%	18%	36%	selectively inhibited growth					
CSCC[C@H](NC(=O)[C@H](CCCCN)NC(=O)[C@H](CC(C)C)NC(=O)[C@H](CC(C)C)NC(=O)[C@H](Cc1ccccc1)NC(=O)[C@H](Cc1ccccc1)NC(=O)[C@@H](N)Cc1ccccc1)C(=O)N[C@@H](CC(N)=O)C(=O)N[C@@H](Cc1ccc(O)cc1)C(=O)N[C@@H](CC(N)=O)C(=O)N[C@@H](C)C(=O)N[C@H](C(=O)N[C@@H](Cc1c[nH]cn1)C(=O)N[C@@H](CC(C)C)C(=O)N[C@@H](C)C(=O)NCC(=O)N[C@@H](CCCNC(=N)N)C(=O)N[C@@H](CCC(=O)O)C(=O)N[C@@H](Cc1ccccc1)C(=O)O)[C@@H](C)O [Ac88] (H-FFFLLKMNYNATHLAGREF-OH; N-terminus and C-terminus assumed)	0%	0%	0%	13%					selectively inhibited growth	
CC(C)C[C@H](NC(=O)[C@H](C)NC(=O)[C@H](CS)NC(=O)[C@H](CO)NC(=O)[C@H](C)NC(=O)[C@H](CO)NC(=O)[C@H](CCCNC(=N)N)NC(=O)CN)C(=O)N[C@@H](CCCNC(=N)N)C(=O)N[C@@H](Cc1c[nH]c2ccccc12)C(=O)N[C@@H](C)C(=O)NCC(=O)N1CCC[C@H]1C(=O)N[C@@H](CC(C)C)C(=O)N1CCC[C@H]1C(=O)N[C@@H](CCCCN)C(=O)NCC(=O)N[C@@H](CCCNC(=N)N)C(=O)NCC(=O)N[C@@H](CCCCN)C(=O)N[C@@H](Cc1c[nH]c2ccccc12)C(=O)N[C@@H](Cc1c[nH]c2ccccc12)C(=O)N[C@@H](CS)C(=O)O [Ac68] (H-GRSASCALRWAGPLPKGRGKWWC-OH; N-terminus and C-terminus assumed)			0%	0%		0%	0%			selectively inhibited growth
